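Test compounds were applied to cells in 96-well plates for 48 hours at 5 doses. At the GI50, growth is halved.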 Active and inactive are the calls of the source. Cut-off read from the data, not from the text of the source: active = GI50 up to about 1.1 µM and inactive = higher.
Legend:
Assay in all cases: NCI anticancer screen, dose series, 48 h
[1] = tested on: 786-0
[2] = tested on: A498
[3] = tested on: A549
[4] = tested on: ACHN
[5] = tested on: CCRF-CEM
[6] = tested on: COLO 205
[7] = tested on: DLD-1
[8] = tested on: DMS-273
[9] = tested on: EKVX
[10] = tested on: HCC 2998
[11] = tested on: HCT-116
[12] = tested on: HL-60
[13] = tested on: HOP-62
[14] = tested on: HOP-92
[15] = tested on: HT-29
[16] = tested on: IGROV-1
[17] = tested on: K562
[18] = tested on: KM-20L2
[19] = tested on: KM12
[20] = tested on: LOX IMVI
[21] = tested on: LXFL 529
[22] = tested on: M14
[23] = tested on: M19-MEL
[24] = tested on: MOLT-4
[25] = tested on: Malme-3M
[26] = tested on: NCI-H226
[27] = tested on: NCI-H23
[28] = tested on: NCI-H460
[29] = tested on: NCI-H522
[30] = tested on: OVCAR-3
[31] = tested on: OVCAR-5
[32] = tested on: OVCAR-8
[33] = tested on: RPMI-8226
[34] = tested on: RXF 393
[35] = tested on: RXF 631
[36] = tested on: SF-268
[37] = tested on: SF-295
[38] = tested on: SF-539
[39] = tested on: SK-MEL-28
[40] = tested on: SK-MEL-2
[41] = tested on: SK-MEL-5
[42] = tested on: SK-OV-3
[43] = tested on: SNB-75
[44] = tested on: SNB-78
[45] = tested on: SW-620
[46] = tested on: TK-10
[47] = tested on: U-251
[48] = tested on: UACC-257
[49] = tested on: UACC-62
[50] = tested on: UO-31
[51] = tested on: XF498

Measured: GI50

C/C(CC(=O)Nc1ccccc1C)=N/NS(=O)(=O)c1ccc(C)cc1
inactive: [1] > 100 µM | [2] > 100 µM | [3] > 100 µM | [4] > 100 µM | [5] > 100 µM | [6] > 100 µM | [7] > 100 µM | [8] > 100 µM | [9] > 100 µM | [10] > 100 µM | [11] > 100 µM | [12] > 100 µM | [13] > 100 µM | [14] > 100 µM | [15] > 100 µM | [16] > 100 µM | [17] > 100 µM | [18] > 100 µM | [19] > 100 µM | [20] > 100 µM | [21] > 100 µM | [22] > 100 µM | [23] > 100 µM | [24] > 100 µM | [25] > 100 µM | [26] > 100 µM | [27] > 100 µM | [28] > 100 µM | [29] > 100 µM | [30] > 100 µM | [31] > 100 µM | [32] > 100 µM | [33] > 100 µM | [34] > 100 µM | [35] > 100 µM | [36] > 100 µM | [37] > 100 µM | [38] > 100 µM | [39] > 100 µM | [40] > 100 µM | [41] > 100 µM | [42] > 100 µM | [43] > 100 µM | [44] > 100 µM | [45] > 100 µM | [46] > 100 µM | [47] > 100 µM | [48] > 100 µM | [49] > 100 µM | [50] > 100 µM | [51] > 100 µM

Reference: ChEMBL document CHEMBL1201862, “PubChem BioAssay data set” (2004)
